In PubChem BioAssay (NCI):
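Interpolation was linear, between the two tested concentrations surrounding the appropriate level; five concentrations were tested over 48 hours in 96-well plates. GI50 marks 50% less growth. TGI: total growth inhibition.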

Tests used:
Assay in all cases: growth of human tumour cells (NCI), 48 h
NCI/ADR-RES ovarian = system: NCI/ADR-RES ovarian
SK-MEL-5 melanoma = system: SK-MEL-5 melanoma
MCF7 breast = system: MCF7 breast
CAKI-1 renal = system: CAKI-1 renal
SK-OV-3 ovarian = system: SK-OV-3 ovarian
OVCAR-5 ovarian = system: OVCAR-5 ovarian
BT-549 breast = system: BT-549 breast
IGROV1 ovarian = system: IGROV1 ovarian
LOX IMVI melanoma = system: LOX IMVI melanoma
MDA-MB-435 = system: MDA-MB-435
SN12C renal = system: SN12C renal
SW-620 colon = system: SW-620 colon
OVCAR-3 ovarian = system: OVCAR-3 ovarian
M14 melanoma = system: M14 melanoma
SNB-19 CNS = system: SNB-19 CNS
HCC-2998 colon = system: HCC-2998 colon
DU-145 prostate = system: DU-145 prostate
KM12 colon = system: KM12 colon
NCI-H460 lung = system: NCI-H460 lung
SF-268 CNS = system: SF-268 CNS
SK-MEL-2 melanoma = system: SK-MEL-2 melanoma
SNB-75 CNS = system: SNB-75 CNS
NCI-H522 lung = system: NCI-H522 lung
MDA-MB-231 breast = system: MDA-MB-231 breast
NCI-H23 lung = system: NCI-H23 lung
COLO 205 colon = system: COLO 205 colon
UO-31 renal = system: UO-31 renal
SK-MEL-28 melanoma = system: SK-MEL-28 melanoma
OVCAR-4 ovarian = system: OVCAR-4 ovarian
HS 578T breast = system: HS 578T breast
SF-539 CNS = system: SF-539 CNS
HCT-15 colon = system: HCT-15 colon
UACC-62 melanoma = system: UACC-62 melanoma
HT29 colon = system: HT29 colon
786-0 renal = system: 786-0 renal
ACHN renal = system: ACHN renal
MALME-3M melanoma = system: MALME-3M melanoma
OVCAR-8 ovarian = system: OVCAR-8 ovarian
TK-10 renal = system: TK-10 renal
HOP-92 NSCLC = system: HOP-92 NSCLC
SF-295 CNS = system: SF-295 CNS
PC-3 prostate = system: PC-3 prostate
EKVX NSCLC = system: EKVX NSCLC
HCT-116 colon = system: HCT-116 colon
RXF 393 renal = system: RXF 393 renal
HOP-62 NSCLC = system: HOP-62 NSCLC

## COc1ccc(-c2ccc(-c3ccc(C(=N)N)cn3)s2)cc1Cl
NCI/ADR-RES ovarian
  GI50: 1.92 µM
  TGI: 3.84 µM
SK-MEL-5 melanoma
  GI50: 1.82 µM
  TGI: 3.32 µM
MCF7 breast
  GI50: 1.52 µM
  TGI: 3.29 µM
CAKI-1 renal
  GI50: 1.65 µM
  TGI: 3.03 µM
SK-OV-3 ovarian
  GI50: 1.65 µM
  TGI: 3.41 µM
OVCAR-5 ovarian
  GI50: 1.55 µM
  TGI: 3.02 µM
BT-549 breast
  GI50: 1.67 µM
  TGI: 3.43 µM
IGROV1 ovarian
  GI50: 1.57 µM
  TGI: 3.28 µM
LOX IMVI melanoma
  GI50: 1.63 µM
  TGI: 3.08 µM
MDA-MB-435
  GI50: 1.43 µM
  TGI: 2.73 µM
SN12C renal
  GI50: 1.69 µM
  TGI: 3.39 µM
SW-620 colon
  GI50: 1.4 µM
  TGI: 2.73 µM
OVCAR-3 ovarian
  GI50: 1.83 µM
  TGI: 3.32 µM
M14 melanoma
  GI50: 1.81 µM
  TGI: 3.44 µM
SNB-19 CNS
  GI50: 1.73 µM
  TGI: 3.61 µM
HCC-2998 colon
  GI50: 1.89 µM
  TGI: 3.69 µM
DU-145 prostate
  GI50: 1.69 µM
  TGI: 3.06 µM
KM12 colon
  GI50: 1.65 µM
  TGI: 3.04 µM
NCI-H460 lung
  GI50: 1.61 µM
  TGI: 3.02 µM
SF-268 CNS
  GI50: 1.8 µM
  TGI: 3.43 µM
SK-MEL-2 melanoma
  GI50: 2.01 µM
  TGI: 4.14 µM
SNB-75 CNS
  GI50: 1.45 µM
  TGI: 2.85 µM
NCI-H522 lung
  GI50: 1.95 µM
  TGI: 4.46 µM
MDA-MB-231 breast
  GI50: 1.62 µM
  TGI: 3.23 µM
NCI-H23 lung
  GI50: 1.83 µM
  TGI: 3.72 µM
COLO 205 colon
  GI50: 1.41 µM
  TGI: 3.15 µM
UO-31 renal
  GI50: 1.59 µM
  TGI: 3.09 µM
SK-MEL-28 melanoma
  GI50: 1.72 µM
  TGI: 3.35 µM
OVCAR-4 ovarian
  GI50: 1.61 µM
  TGI: 3.3 µM
HS 578T breast
  GI50: 1.79 µM
  TGI: 3.8 µM
SF-539 CNS
  GI50: 1.64 µM
  TGI: 3.11 µM
HCT-15 colon
  GI50: 1.62 µM
  TGI: 3.01 µM
UACC-62 melanoma
  GI50: 1.88 µM
  TGI: 3.65 µM
HT29 colon
  GI50: 1.18 µM
  TGI: 2.87 µM
786-0 renal
  GI50: 1.98 µM
  TGI: 4.03 µM
ACHN renal
  GI50: 1.64 µM
  TGI: 3 µM
MALME-3M melanoma
  GI50: 1.3 µM
  TGI: 2.9 µM
OVCAR-8 ovarian
  GI50: 2.09 µM
  TGI: 4.58 µM
TK-10 renal
  GI50: 1.79 µM
  TGI: 3.41 µM
HOP-92 NSCLC
  GI50: 1.68 µM
  TGI: 3.66 µM
SF-295 CNS
  GI50: 1.72 µM
  TGI: 3.27 µM
PC-3 prostate
  GI50: 1.77 µM
  TGI: 3.51 µM
EKVX NSCLC
  GI50: 1.75 µM
  TGI: 3.41 µM
HCT-116 colon
  GI50: 1.84 µM
  TGI: 3.82 µM
RXF 393 renal
  GI50: 1.98 µM
  TGI: 3.87 µM
HOP-62 NSCLC
  GI50: 1.79 µM
  TGI: 3.83 µM
